Assays:
feline asthma = assay: Treatment of asthma in a tiger cub; type: in vivo, Bengal Tiger; conditions: for response of respiratory clinical signs to bronchodilators: terbutaline 0.3 mg/kg orally, Ventolin puffer 100 μg by inhalation
Method: Respiratory problems were first noticed in Kaasha, a female Bengal Tiger cub at the Dreamworld park, Australia, at the age of 10 weeks and around 10 kg body weight.
Approximately three weeks after initial clinical signs, the treatment included Clavulox (7 mg/kg administered subcutaneously), doxycycline (5 mg/kg administeredorally), and enrofloxacin (5 mg/kg administered subcutaneously) and terbutaline (0.3 mg/kg administered orally), nebulisation (saline) and percussion, use of Ventolin 100 μg by puffer inhalation and terbutaline (0.3 mg/kg administered orally) as necessary to control dyspnoea. Prednisolone was given as a single daily dose of 2 mg/kg, and Seretide (Salmeterol 50 μg plus fluticasone 250 μg) was given using a mask and spacer. […] This combination of treatment was maintained over the next month.
Consequently an experimental technique involving direct injection of Prednisolone sodium succinate, 1200 mg in a total volume of 30 ml (40 mg/ml aqueous solution), was instilled into the trachea under general anaesthesia.
Three weeks after the intra-airway steroid procedure, another experimental therapy was applied. […] (1) were administered at a dose rate of 0.3 mg/kg as single daily subcutaneous injections for six days, followed by twice-weekly injections for 8 weeks. At this time the dose of oral corticosteriod, Prednisolone approx 1 mg/kg reducing, had been reduced to 20 mg per day because of concern regarding side effects of prolonged high dose use.

allergic dermatitis = assay: Treatment of allergic/atopic dermatitis in dogs; type: in vivo, dog
Description: Because of the intermittent nature of the lameness the owner, a veterinarian, found it difficult to assess any improvement.
A very old dog (estimated age 13-16 years) admitted to a pound was diagnosed as having severe atopic dermatitis affecting 100% of the skin and the inside of the ear pinnae (otitis external, and keratoconjunctivitis sicca (“dry eye”). The dog had broken skin over the dorsum of the tail, and both eyes were encrusted with yellow exudate.
The sores on the tail resolved within 3 days.

dermal Arthus reaction [1] = assay: Reverse passive dermal Arthus reaction in the rat: vascular leakage (Evans blue); type: in vivo; conditions: intravenous, oral and topical pretreatment, FIG. 1
Method: (1) by oral gavage (10 mg kg^−1 dissolved in 10% ethanol/90% saline solution to a final volume of 200 μl) or an appropriate oral vehicle control 30 min prior to deposition of antibody. Female Wistar rats (150-250 g) were anaesthetised with ketamine (80 mg kg^−1 i.p.) and xylazine (12 mg kg^−1 i.p.).
(§1) The lateral surfaces of the rat were carefully shaved and 5 distinct sites on each lateral surface clearly delineated. A reverse passive Arthus reaction was induced in each dermal site by injecting Evans blue (15 mg kg^−1 i.v.), chicken ovalbumin (20 mg kg^−1 i.v.) into the femoral vein 10 min prior to the injection of antibody. Rabbit anti-chicken ovalbumin (saline only, 100, 200, 300 or 400 μg antibody in a final injection volume of 30 μL) was injected in duplicate at two separate dermal sites on each lateral surface of the rat, giving a total of 10 injection sites per rat. Rats were placed on a heating pad, and anaesthetic was maintained over a 4 h-treatment period with periodic collection of blood samples. […] Additionally, a second set of skin samples were placed in 1 mL of formamide overnight, and the absorbance of Evans blue extraction measured at 650 nm, as an indicator of serum leakage into the dermis. […] Data are shown as absorbance at 650nm as a percentage of the plasma absorbance, as mean values ±SEM (n=3-6). *indicates a P value ≦0.05 when compared to Arthus control values. […]

equine receptor = assay: Binding to equine C5a receptor; parameters: species or system horse
[2] = Safety observations in dogs treated with PMX53 (haematology, biochemistry, autopsy, injection site); conditions: both dogs; duration of the experiment
Description: (§2) Blood samples were collected after 4 weeks of treatment. […] Biochemistry and haematology was repeated on the high-dose dog at this time.
(§3) The second dog was bled for haematology and biochemistry after a total of seven weeks treatment.

[3] = system: demodectic dermatitis (Demodex canis infestation); assay: Treatment of flea allergy dermatitis and demodectic dermatitis in dogs; type: in vivo, dog
Description: Demodex, also known as demodectic mange or red mange, is an infestation of the skin caused by the mite Demodex canis which causes dermatitis, skin thickening and hair loss, and is very common in dogs. This condition is thought to be due partially to impaired immune responses in the host. It is often associated with flea infestation, which itself can cause an allergic dermatitis. The skin irritation in infected animals is sometimes very extensive, and results in loss of hairs and severe skin rashes. […] (b) A mastiff pup (approximately 6 months old) was diagnosed as having demodex infestation (folliculitis) of the head, involving both eyelids. […] The eyes were red and discharging, and the dog squinted because of the ocular pain. […] This was applied to the eyelid lesion so that the lesion was wet, and was also instilled into the eyes. […] This was considered to be a very significant clinical response.

feline C5a receptor = assay: Binding to feline C5a receptor; parameters: species or system cat
[4] = dog, in vivo, sc
Description: as §2, §3

dermal Arthus reaction [5] = assay: Reverse passive dermal Arthus reaction in the rat: pathology assessment (PMN infiltration score); type: in vivo; conditions: intravenous, oral and topical pretreatment, FIG. 3
Method: as §1
Rat skin samples were fixed in 10% buffered formalin for at least 10 days, and stained with haematoxylin and eosin using standard histological techniques. Dermal samples were analysed in a blind fashion for evidence of pathology, and the degree of rat PMN infiltration was scored on a scale of 0-4. […]

circulating TNFα = assay: Reverse passive dermal Arthus reaction in the rat: serum TNFα ELISA; type: in vivo; conditions: intravenous, oral and topical pretreatment, FIG. 2
Method: as §1, with “samples. Blood was allowed to spontaneously clot on ice, and serum samples were collected and stored at −20° C.” for “samples.”
Serum TNFα concentrations were measured using an enzyme-linked immunosorbent assay (ELISA) kit (Strachan et al., 2000). […]

[6] = old dog, topical 5 mg/ml once a day
[7] = mastiff pup, topical 10 mg/ml daily, after 5 days

In the case of `CC(C)(C)NCC(O)c1cc(O)cc(O)c1` (centres unmarked) [terbutaline, reference compound], the “response of respiratory clinical signs to bronchodilators” value (feline asthma) is reported as “responded rapidly”.

In the case of AcF-[OPdChaWR] [PMX53], the allergic dermatitis (allergic dermatitis; kelpie dog, 1 mg/kg/day PO) is reported as “marked improvement in the dog's allergic dermatitis, which had apparently resolved completely”, the “time to resolution of sores on the tail” value (allergic dermatitis; old dog, severe atopic dermatitis, topical 5 mg/ml in 50% propylene glycol:50% water once a day) is reported as ≤ 3 days and the gait (allergic dermatitis; old dog, after treatment, initially very stilted gait) is reported as “able to walk and trot freely”. The “eyes (keratoconjunctivitis sicca)” value (allergic dermatitis; old dog, eye-drop formulation 5 mg/ml in 30% polyethylene glycol:70% normal saline) was “improved to the point of being essentially normal in appearance”, the itching (allergic dermatitis; [6]) was “no signs of itching” and the “thickening of the skin over the stifle and ischial tuberosity” value (allergic dermatitis; [6]) was “resolved noticeably”. The “severe allergic dermatitis (presumed flea allergy)” value (allergic dermatitis; second dog, 0.3 mg/kg s.c. once daily, FIG. 4) was “completely resolved”, the “vascular leakage associated with a dermal Arthus reaction” value (dermal Arthus reaction [1]) was “inhibition of the vascular leakage” and the “binding to the equine receptor” value (equine receptor) was “binds less effectively”. The “signs of drug toxicity” value [2] was “no signs of drug toxicity”, the “eyelid inflammation / trichiasis” value ([3]; mastiff pup, eye drops 10 mg/ml once daily, over 5 days) was “inflammation resolved to the point that the trichiasis was relieved” and the “inflammation in the skin (head lesions)” value [3, 7] was “inflammation in the skin was reduced”. The “mites in scrapings taken from the lesion” value [3, 7] was “mites were still present”, the “inflammatory response in the skin” value ([3]; two dogs with demodectic dermatitis, 0.3 mg/kg s.c. for 13 days) was “significant reduction in the inflammatory response in the skin” and the “binding to the feline C5a receptor” value (feline C5a receptor) was “bind well”. The “irritation at the site of injection” value [4] was “no evidence of irritation”, the discomfort on injection ([4]; 0.3 mg/kg) was “No discomfort was noted” and the “haematology and biochemistry abnormalities” value ([4]; 0.3 mg/kg) was “No abnormalities were detected”. For the same molecule, the “pathology index associated with a dermal Arthus reaction” value (dermal Arthus reaction [5]) was “reduction of the pathology index”, the “breathing and recovery time after episodes of dyspnoea” value (feline asthma; 0.3 mg/kg single daily subcutaneous injections for six days) was “moderate to marked improvement” and the “general breathing pattern and recovery time” value (feline asthma; 0.3 mg/kg subcutaneous twice-weekly injections) was “not as good during twice weekly treatments as it had been following daily injections, although recovery time was comparable”. The “playfulness, general activity level, appetite and general demeanour” value (feline asthma; together with reduction in oral cortisone dosage) was “marked improvement” and the “rise in circulating TNFα associated with a dermal Arthus reaction” value (circulating TNFα) was “inhibition of the rise in circulating TNFα”.

For “Prednisolone sodium succinate [reference compound]”, the respiratory effort (feline asthma; 1200 mg in 30 ml instilled into the trachea, within 24 hours) was “rapid and marked improvement in respiratory effort”.

In the case of `CC(C)(C)NCC(O)c1ccc(O)c(CO)c1` (centres unmarked) [Ventolin, albuterol, reference compound], the “response of respiratory clinical signs to bronchodilators” value (feline asthma) is reported as “responded rapidly”.

From patent publication US20070021329A1, “Treatment of hypersensitivity conditions” (THE University of QUEENSLAND, priority 2002, published 2007)
